Laboratory results: patent publication US11672817B2, “Maltosyl-Isomaltooligosaccharides” (ISOThrive Inc., priority 2016, dated 2023)
No end group written: not given here.

Columns and labels:
[1] = test system: Weissella viridescens NRRL B-1951; assay: W. viridescens culture absorbance (growth) with nisin; type: cell-based; parameters: key to Corrected ABS 610rs: A600 minus background absorbance taken just after inoculation; conditions: for 91516 ABS 610f: final absorbance, uncorrected
Procedure: Purified nisin A and Z are commercially available and were acquired from Handary S. A. (Brussels Belgium). Certificates of analysis for each lot indicated purities of 95.2 and 99.6% for nisin A and Z, respectively.
100 g De-Man, Rogosa and Sharpe (MRS) media was prepared in a 500 mL Erlenmeyer to contain 5.5% solids in deionized water (18.2 MS2, Hydro Service and Supplies, Gaithersburg, Md.). The media was autoclaved (121° C. 15 min), cooled, and inoculated with 1 mL (0.5 mL culture+0.5 mL glycerol, 40%; frozen at −78° C.) of Weissella viridescens NRRL B-1951 (test strain). The culture was incubated at 31° C. overnight (15 Hr).
The next day, stock solutions of either nisin A or Z were prepared in deionized water to contain 31.3 and 33.7 μg/g of each peptide.
(§1) 100 g MRS media was prepared to contain 5.5% solids. Two sets (one set each for nisin A and nisin Z) of eight Hach-type tubes (Kimble Chase 45066-16100) were prepared. Within each set, in order was added 5.00, 4.95, 4.90, 4.75, 4.50, 4.00, 3.50 and 3.00 g MRS media. The tubes were sealed and autoclaved.
(§2) To each tube was added, of the appropriate nisin stock, 0.00, 0.05, 0.10, 0.25, 0.50, 1.00, 1.50, and 2.00 g. Each tube was inoculated with 0.25 g of late-log W. viridescens NRRL B-1951 culture. The tubes were sealed and the absorbance at 600 nm was quickly measured (Hach DR900). The tubes were segregated by set and incubated at 31° C. overnight (15 Hr).
Each tube was thoroughly mixed to suspend settled cells and the absorbance was measured again at 600 nm. The final absorbance values for each sample were corrected for their respective background (taken just after inoculation, scattered light from added cells). The corrected absorption values were a measure of W. viridescens growth. The corrected values were plotted against nisin concentration and minimum inhibiting concentration approximated via regression.

[2] = test system: Weissella viridescens NRRL B-1951; assay: HPLC of culture supernatants: consumption of glucose and production of organic acids with nisin; type: cell-based; conditions: for acetic acid in the fermentation media: MRS media originally contained 7% acetate
Procedure: as §1, §2
Each tube was sampled (1.5 mL conical polypropylene centrifuge tubes) and centrifuged at 10 kRPM for 10 minutes to remove and suspended cells. The resulting supernatants were filtered (0.2 μm nylon), diluted to 0.5% solids, and analyzed by high pressure liquid chromatography (HPLC, Agilent 1100, refractive index detector and BioRad Ainex HPX-87H column) for consumption of glucose and production of organic acids. The following table illustrates the concentration of sugars such as glucose and production of organic acids during the incubation.
Note that the MRS media originally contained 7% acetate; therefore 7% should be subtracted from the values for acetate in the above table to ascertain the amount of acetate generated during the assay.

## nisin A (ITSISLCTPGCKTGALMGCNMKTATCHCSIHVSK; not fully specified (residues 2, 5, 33, bridges); also: lantibiotic (thioether rings, dehydrated residues not placed); UniProt P13068 24-57, looked up) [Purified nisin A, commercially available, acquired from Handary S. A; purity 95.2%; bacteriocin peptide]
[1]
  inhibition of bacterial growth: can effectively inhibit
[1]; nisin A 0.33 μg/g (tube A2)
  91516 ABS 610f: 1.568
  Corrected ABS 610rs: 1.106
[1]; nisin A 0.68 μg/g (tube A3)
  91516 ABS 610f: 1.531
  Corrected ABS 610rs: 1.063
[1]; nisin A 1.38 μg/g (tube A4)
  91516 ABS 610f: 1.334
  Corrected ABS 610rs: 0.868
[1]; nisin A 3.08 μg/g (tube A5)
  91516 ABS 610f: 0.911
  Corrected ABS 610rs: 0.473
[1]; nisin A 5.97 μg/g (tube A6)
  91516 ABS 610f: 0.536
  Corrected ABS 610rs: 0.116
[1]; nisin A 8.86 μg/g (tube A7)
  91516 ABS 610f: 0.403
  Corrected ABS 610rs: 0.001
[1]; nisin A 11.87 μg/g (tube A8)
  91516 ABS 610f: 0.361
  Corrected ABS 610rs: 0.001
[2]; nisin A 0.33 μg/g (tube A2)
  Maltotriose in the fermentation media: 0.312 %/brix
  ethanol in the fermentation media: 0.068 %/brix
  formic acid in the fermentation media: 0.263 %/brix
  fructose in the fermentation media: 0.000 %/brix
  glucose in the fermentation media: 23.122 %/brix
  glycerol in the fermentation media: 0.292 %/brix
  lactic acid in the fermentation media: 6.884 %/brix
  maltose in the fermentation media: 0.581 %/brix
  acetic acid in the fermentation media: 7.967 %/brix
[2]; nisin A 1.38 μg/g (tube A4)
  Maltotriose in the fermentation media: 0.298 %/brix
  ethanol in the fermentation media: 0.062 %/brix
  formic acid in the fermentation media: 0.282 %/brix
  fructose in the fermentation media: 0.000 %/brix
  glucose in the fermentation media: 24.138 %/brix
  glycerol in the fermentation media: 0.319 %/brix
  lactic acid in the fermentation media: 5.496 %/brix
  maltose in the fermentation media: 0.815 %/brix
  acetic acid in the fermentation media: 8.219 %/brix
[2]; nisin A 3.08 μg/g (tube A5)
  Maltotriose in the fermentation media: 0.276 %/brix
  ethanol in the fermentation media: 0.094 %/brix
  formic acid in the fermentation media: 0.407 %/brix
  fructose in the fermentation media: 0.000 %/brix
  glucose in the fermentation media: 24.698 %/brix
  glycerol in the fermentation media: 0.350 %/brix
  lactic acid in the fermentation media: 4.672 %/brix
  maltose in the fermentation media: 0.598 %/brix
  acetic acid in the fermentation media: 8.296 %/brix
[2]; nisin A 5.97 μg/g (tube A6)
  Maltotriose in the fermentation media: 0.288 %/brix
  ethanol in the fermentation media: 0.057 %/brix
  formic acid in the fermentation media: 0.280 %/brix
  fructose in the fermentation media: 0.000 %/brix
  glucose in the fermentation media: 25.304 %/brix
  glycerol in the fermentation media: 0.328 %/brix
  lactic acid in the fermentation media: 2.707 %/brix
  maltose in the fermentation media: 0.941 %/brix
  acetic acid in the fermentation media: 8.143 %/brix
[2]; nisin A 8.86 μg/g (tube A7)
  Maltotriose in the fermentation media: 0.419 %/brix
  ethanol in the fermentation media: 0.055 %/brix
  formic acid in the fermentation media: 0.234 %/brix
  fructose in the fermentation media: 0.000 %/brix
  glucose in the fermentation media: 25.444 %/brix
  glycerol in the fermentation media: 0.299 %/brix
  lactic acid in the fermentation media: 1.521 %/brix
  maltose in the fermentation media: 0.775 %/brix
  acetic acid in the fermentation media: 7.899 %/brix
[2]; nisin A 11.87 μg/g (tube A8)
  Maltotriose in the fermentation media: 0.305 %/brix
  ethanol in the fermentation media: 0.071 %/brix
  formic acid in the fermentation media: 0.233 %/brix
  fructose in the fermentation media: 0.000 %/brix
  glucose in the fermentation media: 25.537 %/brix
  glycerol in the fermentation media: 0.301 %/brix
  lactic acid in the fermentation media: 1.579 %/brix
  maltose in the fermentation media: 0.739 %/brix
  acetic acid in the fermentation media: 8.091 %/brix
